What follows are compounds tested against PRMT5-MEP50 enzyme complex (Homo sapiens (Human), UniProt O14744) (assay: PRMT5 enzyme activity in vitro assay (methylation of histone H4R3, ELISA absorbance at 450 nm)). Settings: SAM, histone H4 peptide, room temperature 2 hours, 8 points from 10 μM to 0.128 nM.
Format: biochemical
Description: Method for Measuring Enzyme Activity
In vitro assay: PRMT5-MEP50 enzyme complex, cofactor S-adenosylmethionine (SAM) and histone H4 peptide were reacted in vitro, and methylation of arginine (H4R3)—which is the third amino acid of histone H4—was measured in order to measure the enzyme activity of PRMT5.
Reagents: PRMT5-MEP50 enzyme complex (Catalog No. 51045), blocking buffer (52100-B), histone methyltransferase reaction buffer 2 (4×HMT assay buffer 2, Catalog No. 52170), and primary antibody (primary antibody 4-3, Catalog No. 52150) were purchased from BPS Bioscience (USA). The histone H4 peptide (1-20 amino acids) was custom made by Komabiotech (Korea) and used. S-adenosylmethionine was purchased from NEB (New England Biolabs, USA, Catalog No. B9003S). Plates for coating histone H4 peptide, washing buffer and color development reagent were purchased from the following vendors: Plate (Immobilizer™-Amino Plate, NUNC, Denmark, Catalog No. 436023), carbonate-bicarbonate buffer (Sigma-Aldrich, USA, Catalog No. C3041), washing buffer (10×TBST, Biosesang, Korea, Catalog No. T2005), TMB ELISA substrate (Abcam, UK, Catalog No. ab210902), horseradish peroxidase (HRP)-conjugated antibody (Abcam, UK, Catalog No. ab6721).
Experimental procedure: The histone H4 peptide was diluted with carbonate-bicarbonate buffer and prepared to 100 μg/mL, and then dispensed onto the plate per 100 μL and reacted at 37° C. for 1 hour. PRMT5-MEP50 enzyme complex and S-adenosylmethionine were diluted with histone methyltransferase reaction buffer to prepare 5 μg/mL and 2 μM, respectively, and then 20 μL of PRMT5-MEP50 enzyme complex and 25 μL of S-adenosylmethionine were dispensed onto the plate prepared above. 5 μL of the compound diluted with 10% dimethyl sulfoxide solution was added thereto and reacted at room temperature for 2 hours (final volume=50 μL). The concentration of the compound was diluted 1:5 from 10 μM until the lowest concentration of 0.128 nM, and 8 points were used for the test. After preparing the primary antibody by diluting 1:2000 with blocking buffer, 100 μL was added to the plate and reacted at room temperature for 1 hour. After preparing horseradish peroxidase-conjugated antibody by diluting 1:10,000 with blocking buffer, 100 μL was added to the plate and reacted at room temperature for 1 hour. 100 μL of TMB substrate was added and reacted for 3 minutes at room temperature, and 100 μL of 1 N sulfuric acid was then added to terminate the reaction. Then, the absorbance at 450 nm was measured to calculate the IC50 value of the compound. (+++: 1 to 100 nM, ++: greater than 100 to 1,000 nM, +: greater than 1,000 to 10,000 nM)

Chain of PRMT5-MEP50 enzyme complex (O14744 2-637): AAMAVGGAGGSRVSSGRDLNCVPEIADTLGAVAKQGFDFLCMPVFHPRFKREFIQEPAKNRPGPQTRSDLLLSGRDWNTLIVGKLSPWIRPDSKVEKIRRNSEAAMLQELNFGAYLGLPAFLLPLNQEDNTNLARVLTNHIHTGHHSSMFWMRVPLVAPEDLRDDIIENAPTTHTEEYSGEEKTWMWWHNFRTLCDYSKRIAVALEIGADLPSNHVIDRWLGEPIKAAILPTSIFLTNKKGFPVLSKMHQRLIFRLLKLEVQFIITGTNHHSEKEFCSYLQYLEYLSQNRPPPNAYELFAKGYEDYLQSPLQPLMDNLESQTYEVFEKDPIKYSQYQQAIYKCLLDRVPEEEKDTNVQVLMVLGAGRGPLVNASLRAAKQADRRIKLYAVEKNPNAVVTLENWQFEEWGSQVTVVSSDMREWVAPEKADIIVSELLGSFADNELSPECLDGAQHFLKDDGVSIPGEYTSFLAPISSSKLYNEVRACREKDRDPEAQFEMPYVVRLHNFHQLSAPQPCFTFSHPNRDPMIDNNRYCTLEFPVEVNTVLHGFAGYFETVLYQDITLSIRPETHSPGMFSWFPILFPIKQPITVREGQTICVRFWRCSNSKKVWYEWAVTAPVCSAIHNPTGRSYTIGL
Chain of PRMT5-MEP50 enzyme complex (Q9BQA1 2-342 partner): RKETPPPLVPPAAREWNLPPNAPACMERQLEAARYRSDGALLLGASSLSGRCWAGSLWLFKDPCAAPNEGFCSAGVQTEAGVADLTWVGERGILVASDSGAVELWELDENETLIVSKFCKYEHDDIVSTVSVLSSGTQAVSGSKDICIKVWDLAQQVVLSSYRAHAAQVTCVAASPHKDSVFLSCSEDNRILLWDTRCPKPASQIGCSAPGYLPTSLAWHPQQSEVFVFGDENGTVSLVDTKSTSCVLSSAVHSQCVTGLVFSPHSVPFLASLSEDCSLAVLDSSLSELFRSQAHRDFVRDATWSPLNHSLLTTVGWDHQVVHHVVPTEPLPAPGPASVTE

| SMILES | IC50 [nM] |
| --- | --- |
| O=C1c2ccc(CN3CCC(F)(F)CC3)cc2OCCN1C[C@H](O)CN1CCc2ccccc2C1 [Example 31, 8-[(4,4-difluoro-1-piperidyl)methyl]-4-[(2R)-3-(3,4-dihydro-1H-isoquinolin-2-yl)-2-hydroxy-propyl]-2,3-dihydro-1,4-benzoxazepin-5-one] | 1 to 100 |
| O=C1c2ccc(CN3CCC(F)CC3)cc2OCCN1C[C@H](O)CN1CCc2ccccc2C1 [Example 32, 4-[(2R)-3-(3,4-dihydro-1H-isoquinolin-2-yl)-2-hydroxy-propyl]-8-[(4-fluoro-1-piperidyl)methyl]-2,3-dihydro-1,4-benzoxazepin-5-one] | 1 to 100 |
| CC1CC(C)CN(Cc2ccc3c(c2)OCCN(C[C@H](O)CN2CCc4ccccc4C2)C3=O)C1 (stereo partly drawn) [Example 33, 4-[(2R)-3-(3,4-dihydro-1H-isoquinolin-2-yl)-2-hydroxy-propyl]-8-[(3,5-dimethyl-1-piperidyl)methyl]-2,3-dihydro-1,4-benzoxazepin-5-one] | 100 to 1000 |
| O=C1c2ccc(CN3CC4CCCC4C3)cc2OCCN1C[C@H](O)CN1CCc2ccccc2C1 (stereo partly drawn) [Example 34, 8-(3,3a,4,5,6,6a-hexahydro-1H-cyclopenta[c]pyrrol-2-ylmethyl)-4-[(2R)-3-(3,4-dihydro-1H-isoquinolin-2-yl)-2-hydroxy-propyl]-2,3-dihydro-1,4-benzoxazepin-5-one] | 1 to 100 |
| O=C1c2ccc(CN3CCC(O)C3)cc2OCCN1C[C@H](O)CN1CCc2ccccc2C1 (stereo partly drawn) [Example 35, 4-[(2R)-3-(3,4-dihydro-1H-isoquinolin-2-yl)-2-hydroxy-propyl]-8-[(3-hydroxypyrrolidin-1-yl)methyl]-2,3-dihydro-1,4-benzoxazepin-5-one] | 100 to 1000 |
| C[C@@H]1CCCN1Cc1ccc2c(c1)OCCN(C[C@H](O)CN1CCc3ccccc3C1)C2=O [Example 36, 4-[(2R)-3-(3,4-dihydro-1H-isoquinolin-2-yl)-2-hydroxy-propyl]-8-[[(2R)-2-methylpyrrolidin-1-yl]methyl]-2,3-dihydro-1,4-benzoxazepin-5-one] | 100 to 1000 |
| O=C1c2ccc(CN3CCCC(CO)C3)cc2OCCN1C[C@H](O)CN1CCc2ccccc2C1 (stereo partly drawn) [Example 37, 4-[(2R)-3-(3,4-dihydro-1H-isoquinolin-2-yl)-2-hydroxy-propyl]-8-[[3-(hydroxymethyl)-1-piperidyl]methyl]-2,3-dihydro-1,4-benzoxazepin-5-one] | 1000 to 10000 |
| COC1CCN(Cc2ccc3c(c2)OCCN(C[C@H](O)CN2CCc4ccccc4C2)C3=O)CC1 [Example 38, 4-[(2R)-3-(3,4-dihydro-1H-isoquinolin-2-yl)-2-hydroxy-propyl]-8-[(4-methoxy-1-piperidyl)methyl]-2,3-dihydro-1,4-benzoxazepin-5-one] | 100 to 1000 |
| O=C1c2ccc(CN3CCCOCC3)cc2OCCN1C[C@H](O)CN1CCc2ccccc2C1 [Example 39, 4-[(2R)-3-(3,4-dihydro-1H-isoquinolin-2-yl)-2-hydroxy-propyl]-8-(1,4-oxazepan-4-ylmethyl)-2,3-dihydro-1,4-benzoxazepin-5-one] | 100 to 1000 |
| CC1(O)CCN(Cc2ccc3c(c2)OCCN(C[C@H](O)CN2CCc4ccccc4C2)C3=O)C1 (stereo partly drawn) [Example 40, 4-[(2R)-3-(3,4-dihydro-1H-isoquinolin-2-yl)-2-hydroxy-propyl]-8-[(3-hydroxy-3-methyl-pyrrolidin-1-yl)methyl]-2,3-dihydro-1,4-benzoxazepin-5-one] | 1 to 100 |
| O=C1c2ccc(CN3CCCCC3CO)cc2OCCN1C[C@H](O)CN1CCc2ccccc2C1 (stereo partly drawn) [Example 41, 4-[(2R)-3-(3,4-dihydro-1H-isoquinolin-2-yl)-2-hydroxy-propyl]-8-[[2-(hydroxymethyl)-1-piperidyl]methyl]-2,3-dihydro-1,4-benzoxazepin-5-one] | 100 to 1000 |
| O=C1c2ccc(CN3CCCC(F)(F)C3)cc2OCCN1C[C@H](O)CN1CCc2ccccc2C1 [Example 42, 8-[(3,3-difluoro-1-piperidyl)methyl]-4-[(2R)-3-(3,4-dihydro-1H-isoquinolin-2-yl)-2-hydroxy-propyl]-2,3-dihydro-1,4-benzoxazepin-5-one] | 100 to 1000 |
| O=C1c2ccc(CN3CCCC(F)C3)cc2OCCN1C[C@H](O)CN1CCc2ccccc2C1 (stereo partly drawn) [Example 43, 4-[(2R)-3-(3,4-dihydro-1H-isoquinolin-2-yl)-2-hydroxy-propyl]-8-[(3-fluoro-1-piperidyl)methyl]-2,3-dihydro-1,4-benzoxazepin-5-one] | 1 to 100 |
| O=C1c2ccc(CN3CCCC(O)C3)cc2OCCN1C[C@H](O)CN1CCc2ccccc2C1 (stereo partly drawn) [Example 44, 4-[(2R)-3-(3,4-dihydro-1H-isoquinolin-2-yl)-2-hydroxy-propyl]-8-[(3-hydroxy-1-piperidyl)methyl]-2,3-dihydro-1,4-benzoxazepin-5-one] | 1 to 100 |
| O=C1c2ccc(CN3CCC(O)CC3)cc2OCCN1C[C@H](O)CN1CCc2ccccc2C1 [Example 45, 4-[(2R)-3-(3,4-dihydro-1H-isoquinolin-2-yl)-2-hydroxy-propyl]-8-[(4-hydroxy-1-piperidyl)methyl]-2,3-dihydro-1,4-benzoxazepin-5-one] | 1 to 100 |
| O=C1c2ccc(CN3CCC[C@H]3CO)cc2OCCN1C[C@H](O)CN1CCc2ccccc2C1 [Example 46, 4-[(2R)-3-(3,4-dihydro-1H-isoquinolin-2-yl)-2-hydroxy-propyl]-8-[[(2S)-2-(hydroxymethyl)pyrrolidin-1-yl]methyl]-2,3-dihydro-1,4-benzoxazepin-5-one] | 100 to 1000 |
| O=C1c2ccc(CN3CCC[C@@H]3CO)cc2OCCN1C[C@H](O)CN1CCc2ccccc2C1 [Example 47, 4-[(2R)-3-(3,4-dihydro-1H-isoquinolin-2-yl)-2-hydroxy-propyl]-8-[[(2R)-2-(hydroxymethyl)pyrrolidin-1-yl]methyl]-2,3-dihydro-1,4-benzoxazepin-5-one] | 100 to 1000 |
| CCC1CCCN1Cc1ccc2c(c1)OCCN(C[C@H](O)CN1CCc3ccccc3C1)C2=O (stereo partly drawn) [Example 48, 4-[(2R)-3-(3,4-dihydro-1H-isoquinolin-2-yl)-2-hydroxy-propyl]-8-[(2-ethylpyrrolidin-1-yl)methyl]-2,3-dihydro-1,4-benzoxazepin-5-one] | 100 to 1000 |
| COC[C@@H]1CCCN1Cc1ccc2c(c1)OCCN(C[C@H](O)CN1CCc3ccccc3C1)C2=O [Example 49, 4-[(2R)-3-(3,4-dihydro-1H-isoquinolin-2-yl)-2-hydroxy-propyl]-8-[[(2S)-2-(methoxymethyl)pyrrolidin-1-yl]methyl]-2,3-dihydro-1,4-benzoxazepin-5-one] | 100 to 1000 |
| COC[C@H]1CCCN1Cc1ccc2c(c1)OCCN(C[C@H](O)CN1CCc3ccccc3C1)C2=O [Example 50, 4-[(2R)-3-(3,4-dihydro-1H-isoquinolin-2-yl)-2-hydroxy-propyl]-8-[[(2R)-2-(methoxymethyl)pyrrolidin-1-yl]methyl]-2,3-dihydro-1,4-benzoxazepin-5-one] | 1 to 100 |
| O=C1c2ccc(CN3CCC(F)C3)cc2OCCN1C[C@H](O)CN1CCc2ccccc2C1 (stereo partly drawn) [Example 51, 4-[(2R)-3-(3,4-dihydro-1H-isoquinolin-2-yl)-2-hydroxy-propyl]-8-[(3-fluoropyrrolidin-1-yl)methyl]-2,3-dihydro-1,4-benzoxazepin-5-one] | 100 to 1000 |
| O=C1c2ccc(CN3CCC(F)(F)C3)cc2OCCN1C[C@H](O)CN1CCc2ccccc2C1 [Example 52, 8-[(3,3-difluoropyrrolidin-1-yl)methyl]-4-[(2R)-3-(3,4-dihydro-1H-isoquinolin-2-yl)-2-hydroxy-propyl]-2,3-dihydro-1,4-benzoxazepin-5-one] | 100 to 1000 |
